Experiments:
AXL = molecular target: T1, AXL (Homo sapiens, UniProt P30530); test: TR-FRET kinase activity assay, AXL; type: biochemical; conditions: ATP at Km, 60 minutes
T1 sequence (P30530 26-894): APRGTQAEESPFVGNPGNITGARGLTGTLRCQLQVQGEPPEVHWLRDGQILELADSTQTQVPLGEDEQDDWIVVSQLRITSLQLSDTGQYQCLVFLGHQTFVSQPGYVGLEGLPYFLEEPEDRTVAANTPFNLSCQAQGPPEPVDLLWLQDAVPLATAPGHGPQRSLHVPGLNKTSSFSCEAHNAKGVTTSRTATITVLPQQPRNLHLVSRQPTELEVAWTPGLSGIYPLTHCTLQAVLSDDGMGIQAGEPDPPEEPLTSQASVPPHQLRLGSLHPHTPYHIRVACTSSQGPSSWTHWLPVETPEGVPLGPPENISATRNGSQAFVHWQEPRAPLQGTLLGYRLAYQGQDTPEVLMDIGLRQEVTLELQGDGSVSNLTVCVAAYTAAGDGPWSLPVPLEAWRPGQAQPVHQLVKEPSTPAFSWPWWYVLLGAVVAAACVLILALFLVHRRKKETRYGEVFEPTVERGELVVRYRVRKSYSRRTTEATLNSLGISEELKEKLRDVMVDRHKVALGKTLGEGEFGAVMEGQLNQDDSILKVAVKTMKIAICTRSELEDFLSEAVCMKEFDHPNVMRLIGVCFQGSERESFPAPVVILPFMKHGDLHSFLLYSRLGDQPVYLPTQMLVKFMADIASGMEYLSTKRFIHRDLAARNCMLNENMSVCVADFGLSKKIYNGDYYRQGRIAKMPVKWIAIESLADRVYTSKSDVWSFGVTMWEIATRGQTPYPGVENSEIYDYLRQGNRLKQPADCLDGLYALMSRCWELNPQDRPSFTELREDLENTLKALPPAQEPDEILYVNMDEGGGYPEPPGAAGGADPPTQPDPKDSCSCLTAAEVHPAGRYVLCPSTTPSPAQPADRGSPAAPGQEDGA
How it was run: (§1)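 Inhibition is measured as loss of phospho-peptide formation: kinase, fluorescent tyrosine peptide and compound are combined, ATP is added at Km, and the reaction proceeds 60 min at RT in pH 7.5 HEPES buffer. An EDTA stop and Eu-labelled phospho-specific antibody allow TR-FRET detection for IC50 fitting.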

TYRO3 = molecular target: T2, TYRO3 (Homo sapiens, UniProt Q06418); test: TR-FRET kinase activity assay, TYRO3; type: biochemical; conditions: ATP at Km, 60 minutes
T2 sequence (Q06418 41-890): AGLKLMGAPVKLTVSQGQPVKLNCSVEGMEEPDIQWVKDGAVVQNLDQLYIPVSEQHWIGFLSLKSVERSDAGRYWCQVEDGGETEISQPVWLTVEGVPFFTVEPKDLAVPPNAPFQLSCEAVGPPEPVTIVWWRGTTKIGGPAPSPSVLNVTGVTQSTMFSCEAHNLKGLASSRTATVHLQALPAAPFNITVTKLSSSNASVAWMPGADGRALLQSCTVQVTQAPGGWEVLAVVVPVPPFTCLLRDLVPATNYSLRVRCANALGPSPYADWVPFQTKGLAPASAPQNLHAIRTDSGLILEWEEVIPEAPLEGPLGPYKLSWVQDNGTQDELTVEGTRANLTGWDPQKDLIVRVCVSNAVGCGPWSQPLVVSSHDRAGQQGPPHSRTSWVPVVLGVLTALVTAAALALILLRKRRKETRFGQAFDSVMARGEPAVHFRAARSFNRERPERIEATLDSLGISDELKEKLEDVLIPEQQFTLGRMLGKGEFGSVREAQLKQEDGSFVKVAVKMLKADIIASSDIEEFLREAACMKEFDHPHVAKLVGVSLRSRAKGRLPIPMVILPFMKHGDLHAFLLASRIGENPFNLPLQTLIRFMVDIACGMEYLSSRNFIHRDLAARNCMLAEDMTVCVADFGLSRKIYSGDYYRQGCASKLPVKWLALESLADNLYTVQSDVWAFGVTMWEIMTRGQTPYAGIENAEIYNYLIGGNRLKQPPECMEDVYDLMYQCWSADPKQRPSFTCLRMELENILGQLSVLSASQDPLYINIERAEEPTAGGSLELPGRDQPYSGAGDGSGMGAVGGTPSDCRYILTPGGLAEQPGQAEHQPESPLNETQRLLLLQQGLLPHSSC
How it was run: as §1

Row | Structure (SMILES) | IC50 (AXL) [nM] | IC50 (TYRO3) [nM]
1 | CN1CCN(Cc2ccc(-c3cc(C4CCC(O)CC4)n4nc(NC5CCC5(C)C)ncc34)cc2)CC1 (mixture of isomers) [Compound 121] | 100 to 1000 | ≤ 100
2 | COCC(C)Nc1ncc2c(C3CCN(C(C)=O)C3)cc(C3CCC(O)CC3)n2n1 (mixture of isomers) [Compound 383] | 100 to 1000 | ≤ 100
3 | COC[C@H](C)Nc1ncc2c(-c3ccc(CN4CCN(C)CC4)cc3)cc([C@H]3CC[C@H](O)CC3)n2n1 (single isomer, unassigned) [Compound 124] | ≤ 100 | ≤ 100
4 | CC[C@H](C)Nc1ncc2c(-c3cncc(S(C)(=O)=O)c3)cc([C@H]3CC[C@H](O)CC3)n2n1 [Compound 119] | 100 to 1000 | ≤ 100
5 | CC[C@H](C)Nc1ncc2c(-c3cncc(S(C)(=O)=O)c3)cc([C@H]3CC[C@@H](O)CC3)n2n1 [Compound 120] | 100 to 1000 | ≤ 100
6 | CCCCC[C@H](C)Nc1ncc2c(C3=CCC(C(=O)O)CC3)cc([C@H]3CC[C@H](O)CC3)n2n1 (stereo partly drawn) [Compound 122, 4-(2-((S)-heptan-2-ylamino)-7-((trans)-4-hydroxycyclohexyl)pyrrolo[2,1-f][1,2,4]triazin-5-yl)cyclohex-3-enecarboxylic acid] | ≤ 100 | ≤ 100
7 | CCC(C)Nc1ncc2c(C)cc(C3CCC(O)CC3)n2n1 (stereo not drawn) [Compound 123] | 1000 to 10000 | 100 to 1000
8 | CCCCC[C@H](C)Nc1ncc2c([C@H]3CC[C@@H](C(=O)O)CC3)cc([C@H]3CC[C@H](O)CC3)n2n1 [Compound 125, (cis)-4-(2-((S)-heptan-2-ylamino)-7-((trans)-4-hydroxycyclohexyl)pyrrolo[2,1-f][1,2,4]triazin-5-yl)cyclohexanecarboxylic acid] | 100 to 1000 | 100 to 1000
9 | C[C@@H](CC(F)(F)F)Nc1ncc2c(-c3ccnc(N4CCOCC4)c3)cc([C@H]3CC[C@H](O)CC3)n2n1 [Compound 346] | ≤ 100 | ≤ 100
10 | CNC(=O)c1ncc(-c2cc([C@H]3CC[C@H](O)CC3)n3nc(N[C@@H](C)CC(F)(F)F)ncc23)cn1 [Compound 347] | ≤ 100 | ≤ 100
11 | COC[C@H](C)Nc1ncc2c(-c3cnn([C@H]4CCNC4=O)c3)cc([C@H]3CC[C@H](O)CC3)n2n1 [Compound 348] | ≤ 100 | ≤ 100
12 | COC[C@H](C)Nc1ncc2c(-c3cc([C@H]4CC[C@H](O)CC4)n4nc(N[C@@H](C)COC)ncc34)cc([C@H]3CC[C@H](O)CC3)n2n1 [Compound 349] | 1000 to 10000 | ≤ 100
13 | CC(C)Nc1ncc2c(-c3ccnc(N4CCOCC4)c3)cc([C@H]3CC[C@H](O)CC3)n2n1 [Compound 350] | ≤ 100 | ≤ 100
14 | C[C@@H](CC(F)F)Nc1ncc2c(-c3cnn(C4COC4)c3)cc([C@H]3CC[C@H](O)CC3)n2n1 [Compound 351] | ≤ 100 | ≤ 100
15 | CC(CC(F)F)Nc1ncc2c(-c3ccc(CN4CCN(C)CC4)cc3)cc(C3CCC(O)CC3)n2n1 (stereo not drawn) [Compound 352] | ≤ 100 | ≤ 100
16 | CNC(=O)c1cc(-c2cc([C@H]3CC[C@H](O)CC3)n3nc(N[C@@H](C)CC(F)(F)F)ncc23)cc(C)n1 [Compound 353] | 100 to 1000 | ≤ 100
17 | CNc1cc(-c2cc([C@H]3CC[C@H](O)CC3)n3nc(N[C@@H](C)COC)ncc23)ccn1 [Compound 354] | ≤ 100 | ≤ 100
18 | COC[C@H](C)Nc1ncc2c(-c3ccnc(N4CCOCC4)c3)cc([C@H]3CC[C@H](O)CC3)n2n1 [Compound 355] | ≤ 100 | ≤ 100
19 | OC1CCC(c2cc(-c3ccnc(N4CCOCC4)c3)c3cnc(NC4CCOC4)nn23)CC1 (stereo not drawn) [Compound 356] | ≤ 100 | ≤ 100
20 | COC[C@H](C)Nc1ncc2c(-c3ccnc(N4CCS(=O)(=O)CC4)c3)cc([C@H]3CC[C@H](O)CC3)n2n1 [Compound 357] | ≤ 100 | ≤ 100

Row | Structure (SMILES) | IC50 (AXL) [nM] | IC50 (TYRO3) [nM]
21 | COC[C@H](C)Nc1ncc2c(-c3ccnc(OC4COC4)c3)cc([C@H]3CC[C@H](O)CC3)n2n1 [Compound 358] | ≤ 100 | ≤ 100
22 | OC1CCC(c2cc(-c3ccnc(N4CCOCC4)c3)c3cnc(NCCC4CC4)nn23)CC1 (stereo not drawn) [Compound 359] | ≤ 100 | ≤ 100
23 | CNS(=O)(=O)c1ccc(-c2cc([C@H]3CC[C@H](O)CC3)n3nc(N[C@@H](C)CC(F)(F)F)ncc23)cn1 [Compound 360] | ≤ 100 | ≤ 100
24 | CNOc1cc(-c2cc([C@H]3CC[C@H](O)CC3)n3nc(N[C@@H](C)COC)ncc23)ccn1 [Compound 361] | ≤ 100 | ≤ 100
25 | O[C@H]1CC[C@H](c2cc(-c3ccnc(N4CCOCC4)c3)c3cnc(N[C@H]4CCOC4)nn32)CC1 [Compound 362] | ≤ 100 | ≤ 100
26 | O[C@H]1CC[C@H](c2cc(-c3ccnc(N4CCOCC4)c3)c3cnc(NCCC(F)(F)F)nn32)CC1 [Compound 363] | ≤ 100 | ≤ 100
27 | COC[C@H](C)Nc1ncc2c(-c3cnn([C@@H]4CCC(C(=O)OC(C)(C)C)C4)c3)cc([C@H]3CC[C@H](O)CC3)n2n1 (stereo partly drawn) [Compound 364] | ≤ 100 | ≤ 100
28 | COC[C@H](C)Nc1ncc2c(-c3cnn([C@H]4CCC(C(=O)OC(C)(C)C)C4)c3)cc([C@H]3CC[C@H](O)CC3)n2n1 (stereo partly drawn) [Compound 365] | ≤ 100 | ≤ 100
29 | COCC(C)Nc1ncc2c(-c3cnn(C(C)(C)C(=O)N4CCOC(C)(C)C4)c3)cc(C3CCC(O)CC3)n2n1 (stereo not drawn) [Compound 366] | ≤ 100 | ≤ 100
30 | COC[C@H](C)Nc1ncc2c(-c3cnn(C(C)(C)C(=O)N4C[C@@H](C)O[C@H](C)C4)c3)cc([C@H]3CC[C@H](O)CC3)n2n1 [Compound 367] | ≤ 100 | ≤ 100
31 | COC[C@H](C)Nc1ncc2c(-c3cnn(C[C@@H]4CCC(=O)N4)c3)cc([C@H]3CC[C@H](O)CC3)n2n1 [Compound 368] | ≤ 100 | ≤ 100
32 | COC[C@H](C)Nc1ncc2c(-c3ccnc(OC4CCNCC4)c3)cc([C@H]3CC[C@H](O)CC3)n2n1 [Compound 369] | ≤ 100 | ≤ 100
33 | CC(=O)N1CCN(Cc2ccc(-c3cc(C4CCC(O)CC4)n4nc(NC(C)CC(F)(F)F)ncc34)cc2)CC1 (stereo not drawn) [Compound 370] | ≤ 100 | ≤ 100
34 | COCC(C)Nc1ncc2c(C3CCCN(C(C)=O)C3)cc(C3CCC(O)CC3)n2n1 (stereo not drawn) [Compound 371] | 1000 to 10000 | 100 to 1000
35 | COC[C@H](C)Nc1ncc2c([C@@H]3CCCN(C(C)=O)C3)cc([C@H]3CC[C@H](O)CC3)n2n1 [Compound 372] | 1000 to 10000 | 1000 to 10000
36 | COCC(C)Nc1ncc2c(C3CCN(c4ccnc(C)n4)C3)cc(C3CCC(O)CC3)n2n1 (stereo not drawn) [Compound 373] | 100 to 1000 | ≤ 100
37 | COCC(C)Nc1ncc2c(C3CCN(c4ccnc(C)n4)C3)cc(C3CCC(O)CC3)n2n1 (stereo not drawn) [Compound 374] | ≤ 100 | ≤ 100
38 | COC[C@H](C)Nc1ncc2c([C@@H]3CCN(S(C)(=O)=O)C3)cc([C@H]3CC[C@H](O)CC3)n2n1 [Compound 375] | 100 to 1000 | ≤ 100
39 | COC[C@H](C)Nc1ncc2c([C@H]3CCN(S(C)(=O)=O)C3)cc([C@H]3CC[C@H](O)CC3)n2n1 [Compound 376] | 100 to 1000 | ≤ 100

Source: patent US11040981B2, “Pyrrolotriazine compounds and methods of inhibiting TAM kinases” (Syros Pharmaceuticals, Inc., priority 2017, dated 2021)
